Assays:
Test in all cases: -log10 GI50 (growth inhibition 50%) (-log10(M)); higher = more potent growth inhibition
[1] = tested on: MDAMB157
In short: (§1)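 Breast cancer cell lines were exposed to each compound for 72 hours at nine doses in 1:5 serial dilution, in triplicate, with a luminescence read-out against a time-zero plate. A Gompertz curve was fitted to the dose-response data by nonlinear least squares. The value is minus log10 of GI50, the molar concentration giving the set level of growth inhibition. Values equal to the top dose carry a < qualifier.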

[2] = tested on: HCC1143
In short: as §1

[3] = tested on: MCF7
In short: as §1

[4] = tested on: HCC1569
In short: as §1

[5] = tested on: BT549
In short: as §1

[6] = tested on: HCC3153
In short: as §1

[7] = tested on: MCF10A
In short: as §1

[8] = tested on: ZR751
In short: as §1

[9] = tested on: HCC1419
In short: as §1

[10] = tested on: CAMA1
In short: as §1

[11] = tested on: SUM225CWN
In short: as §1

[12] = tested on: MX1
In short: as §1

[13] = tested on: SUM1315MO2
In short: as §1

[14] = tested on: HCC2185
In short: as §1

[15] = tested on: 600MPE
In short: as §1

[16] = tested on: MDAMB134VI
In short: as §1

[17] = tested on: HCC1395
In short: as §1

[18] = tested on: AU565
In short: as §1

[19] = tested on: HCC1806
In short: as §1

[20] = tested on: 184B5
In short: as §1

Row | SMILES | -log10 GI50 [1] | -log10 GI50 [2] | -log10 GI50 [3] | -log10 GI50 [4] | -log10 GI50 [5] | -log10 GI50 [6] | -log10 GI50 [7] | -log10 GI50 [8] | -log10 GI50 [9] | -log10 GI50 [10] | -log10 GI50 [11] | -log10 GI50 [12] | -log10 GI50 [13] | -log10 GI50 [14] | -log10 GI50 [15] | -log10 GI50 [16] | -log10 GI50 [17] | -log10 GI50 [18] | -log10 GI50 [19] | -log10 GI50 [20]
1 | Cn1c(=O)n(-c2ccc(C(C)(C)C#N)cc2)c2c3cc(-c4cnc5ccccc5c4)ccc3ncc21 [BEZ235] | 6.55 | < 4.48 | < 4.48 | 6.33 | < 4.48 | 6.19 | 7.26 | 5.74 | 7.2 | 6.67 | 6.68 | < 4.48 | 6.49 | 7.24 | < 4.48 | < 4.48 | < 4.48 | 6.59 | < 4.48 | 
2 | C[C@@H](Oc1cc(-c2cnn(C3CCNCC3)c2)cnc1N)c1c(Cl)ccc(F)c1Cl | 5.71 | 5.7 | 5.91 | 5.68 | 5.44 | 5.16 | 5.59 | 5.44 | 4.73 | 5.23 |  | 5.84 | 5.24 | 5.18 | 6.21 | 5.57 | 5.37 | 5.55 | 6.11 | 5.42
3 | CNC(=O)c1cc(Oc2ccc(NC(=O)Nc3ccc(Cl)c(C(F)(F)F)c3)cc2)ccn1 [Sorafenib] | 3.78 | 4.23 | 4.19 | 4.27 | 4.08 | 4.31 | 4.31 | 4.43 | 4 | 4.22 | 4.6 |  | 4.55 | 4.83 | 4.36 | 4.54 | 4.32 | 3.94 | 4.23 | 5.48
4 | CCN(CC)C(=S)SSC(=S)N(CC)CC [Disulfiram] | 7.22 | 6.95 | 4.45 | < 4.18 | 6.89 | 5.13 | 4.93 |  | < 4.18 | 4.85 |  | 4.54 | 6.36 | < 4.18 | 7.1 | 5.88 | < 4.18 | 6.84 |  | 4.93
5 | Cn1ncc(Cl)c1-c1cc(C(=O)N[C@H](CN)Cc2ccc(F)c(F)c2)oc1Cl | 5.22 | 5.41 | 6.91 | 6.55 | 5.45 | 6.12 | 5.03 | 8.26 | 7.72 | 7.02 | 6.88 | 8.11 | 5.01 | > 9.77 |  | 5.2 |  | 6.09 | 5.25 | 
6 | NS(=O)(=O)c1ccc(Nc2nc(OCC3CCCCC3)c3[nH]cnc3n2)cc1 [NU6102] | 4.26 | 4.87 | 4.63 | 4.79 | 4.6 | 4.8 | 5.32 | 4.82 | 4.54 | 4.79 | 4.3 | 5.47 | 5.42 | 4.84 |  | 4.74 | 5.03 | 4.64 | 4.81 | 5.39
7 | CN(C)C/C=C/C(=O)Nc1cc2c(Nc3ccc(F)c(Cl)c3)ncnc2cc1O[C@H]1CCOC1 [BIBW2992] | 5.61 | 5.86 |  | 6.56 | 5.87 |  | 7.49 | 5.63 | 8.53 | 5.65 | 8.03 | 6.58 | 6.79 | 5.86 | 5.63 | 5.44 | 5.93 |  | 6.27 | 7.22
8 | CO[C@H]1C[C@@H]2CC[C@@H](C)[C@@](O)(O2)C(=O)C(=O)N2CCCC[C@H]2C(=O)O[C@H]([C@H](C)C[C@@H]2CC[C@@H](OCCO)[C@H](OC)C2)CC(=O)[C@H](C)/C=C(\C)[C@@H](O)[C@@H](OC)C(=O)[C@H](C)C[C@H](C)/C=C/C=C/C=C/1C [Everolimus] | 4.63 | 5.83 | 6.46 | 5.15 | 6.88 | 4.85 | 6.08 | 7.55 | 8.4 | 8.15 | 7.62 | 5.33 | 5.23 | 7.93 | 4.7 | 7.27 | 4.98 |  | 4.61 | 5.55
9 | O=C(O)c1ccc(-c2c[nH]c3ncc(-c4ccccc4)cc23)cc1C1CCCC1 | < 4.18 | < 4.18 | < 4.48 | < 4.18 | < 4.48 | < 4.48 | 5.55 | < 4.18 | < 4.18 | < 4.18 |  | 4.45 | 6.1 | < 4.18 | < 4.18 | < 4.18 | < 4.18 | < 4.48 | < 4.18 | 5.97
10 | COC(=O)Nc1nc2cc(C(=O)c3ccccc3)ccc2[nH]1 [Mebendazole] | 6.3 | 6.01 | 6.22 | 5.31 | 6.3 | 6.69 | 5.5 | 6.62 | 4.72 | 6.33 |  | 6.42 | < 4.18 | < 4.18 | 5 |  | 6.33 | 6.96 | 6.5 | < 4.18
11 | Cc1c(O)cccc1C(=O)N[C@@H](CSc1ccccc1)[C@H](O)CN1C[C@H]2CCCC[C@H]2C[C@H]1C(=O)NC(C)(C)C [Nelfinavir] | 5.09 | 5.13 | 4.8 | < 4.48 | 4.99 | 5.21 | 4.9 | 4.94 | 5.66 | 5.37 |  | 5.15 | < 4.48 | < 4.48 | 5.05 | 5.06 | < 4.48 | < 4.48 | 5.11 | 5.33
